Source: US8299083B2, “PDE5 inhibitor compositions and methods for treating cardiac indications” (The Johns Hopkins University, priority 2004, dated 2012)

Assays:
[1] = system: healthy human volunteers, dobutamine-stimulated cardiac function; test: Dobutamine stress test before and after oral study drug, randomized double-blind placebo-controlled; type: in vivo
Excerpt: Forty healthy volunteers were recruited from the general population in response to advertisements posted in the surrounding community. Subjects were screened by medical history, physical examination, and transthoracic echocardiogram. Individuals with heart disease, atherosclerosis, hypertension, diabetes mellitus, pulmonary hypertension, renal or hepatic disease, smoking, pregnancy, or under treatment with nitrates, adrenergic-blocking drugs, or medicines known to interfere with sildenafil pharmacokinetics were excluded. […] All subjects were instructed to fast for >6 hours prior to study. […] Intravenous dobutamine (5 μg/kg/min) was then administered for 5 minutes to achieve a stable response, and measurements repeated (D1). Dobutamine was discontinued, and 15 minutes provided to return to the baseline state. […] Data were again recorded for a second baseline (B2), and during a second dobutamine infusion (D2) using the identical protocol as for the first test. Systolic function was determined by cardiac-specific indexes that combined measurements of pressure, dimension, and flow. Arterial pressure was determined by an oscillometric arm cuff ([…] 2-dimensional echo-Doppler measurements by an Agilent Sonos 5500 (Philips, The Netherlands) employing a 3 MHz probe. All echo-Doppler measurements were digitally acquired to optical disc and analyzed offline by a single blinded investigator. Each measurement reflected the average of at least 3 separate beats. Aortic flow was equal to the velocity time-integral from pulse-wave Doppler in the left ventricular outflow tract multiplied by cross sectional […].^83 Stroke volume, peak, and mean flow were determined from this waveform. Cardiac output was the product of heart rate and stroke volume. Systemic vascular resistance was the ratio of mean arterial pressure (1⁄3 pulse pressure+diastolic blood pressure) to cardiac output. Cardiac contractility was assessed by several load-independent indexes. […] Load-independent secondary outcome contractility parameters were mean ventricular power index and the end-systolic pressure/volume ratio, an approximation for ventricular end systolic elastance. Other secondary outcome variables included routine measures of cardiac systolic and diastolic function. Ejection fraction was determined from cardiac end-diastolic and systolic volumes determined by Simpson's method using apical 4- and 2-chamber views. End-diastolic volume was equal to stroke volume (from Doppler) divided by ejection fraction, with end-systolic volume equal to the difference of the former and latter. Pulse-wave Doppler spectra of transmittal inflow and tissue Doppler imaging of the lateral mitral annular (E') velocities were used to assess diastolic function.^89 The ratio of E/E' was determined as a surrogate marker of left ventricular filling pressures as previously validated^90. Isovolumic relaxation time was measured by continuous wave Doppler as the time between aortic flow cessation and onset of mitral inflow. All statistical analysis was performed using Systat® software. Results are expressed as mean±standard deviation. […] The primary test was a test between group analysis of whether sildenafil (versus placebo) altered the disparity between the first and second dobutamine response, and determined by a three-way interaction term that included each grouping factor. […] Within group analysis was also performed using a 2-tailed Student's paired t-test to assess individual dobutamine responses ([…]2), and a 2-way ANOVA to test whether study drug altered this response within in each group. Categorical variables were compared using the Chi-squared test.

AktTG and NTG mice = test: Transgenic mice with cardiac-targeted Akt overexpression (AktTG) and NTG controls: pressure-volume analysis, echo, heart weight; type: in vivo, mouse; settings: for EDP / EDV / EF / ESP / ESV / Eesn / HR / PMXI / Tau / dP/dtmax/IP / dPdtmax / dPdtmin: sildenafil 100 mg/kg/day
Description: In vehicle-treated animals (age 4-5 months), AktTG hearts were larger and had reduced heart function (FIG. 10E and Table 3). […]
Transthoracic two-dimensional guided M-mode echocardiography was performed in non-anesthetized mice. Measurements were done using an echocardiography system, the SEQUOIA C256 (Siemens, Munich, Del.) with the 15 MHz linear-array transducer. Intact heart hemodynamic analysis was performed as described^90. These studies employed a four-electrode pressure-volume catheter (model SPR-839, Millar Instruments) placed through the left ventricular apex in the open chest anesthetized animal and positioned along the longitudinal axis to record chamber volume by impedance and pressure by micromanometry.
All hemodynamic data were recorded using custom developed software, digitizing signals at 2 KHz. End-diastolic and end-systolic volumes were the average of volumes measured during isovolumic contraction and relaxation, respectively. ESP was the pressure at maximal chamber elastance (P/V ratio)^1. EDP was the diastolic pressure at the lower right hand corner of the pressure-volume loop. Cardiac output was determined from a perivascular flow probe (Transonics, Ithica, N.Y.) placed around the thoracic aorta. Ea was equal to the ratio of end-systolic pressure divided by stroke volume. The volume catheter signal was calibrated for both gain and offset. Gain was determined by setting the catheter-derived cardiac output (equal to pressure-volume loop width times heart rate) to that obtained from the calibrated flow probe value. Offset was determined using the hypertonic saline method Ventricular power was equal to the instantaneous product of pressure times flow, and the peak power was divided by EDV to obtain the power index PMXI^79. […] The slope of this relation Ees was normalized by heart mass and expressed per gm heart mass. Msw was derived from the linear relation between stroke work and EDV from the same set of variably loaded cardiac cycles used to derive Eesn, and is another load-independent assessment of systolic contractile function^4. Tau was obtained from the model: P=Po+ae^−t/□ . . . fitting data during isovolumic relaxation. dP/dt was derived from a digital filter (5-point weighted slope). PFR/EDV was derived from the maximal first derivative of the volume signal during early diastole, divided by EDV.

[2] = dobutamine-induced change after sildenafil
[3] = resting baseline after vs before 100 mg oral sildenafil
[4] = second versus initial dobutamine response

Structure (SMILES): CCCc1nn(C)c2c(=O)[nH]c(-c3cc(S(=O)(=O)N4CCN(C)CC4)ccc3OCC)nc12 [sildenafil]
- dobutamine-induced change in ventricular end-systolic elastance ([1]; after sildenafil 100 mg oral): 0.84±0.9 mmHg/ml
- dobutamine-induced increase in ejection fraction (absolute change) ([1]; after sildenafil 100 mg oral): 4±5%
- dobutamine-induced increase in heart rate ([1]; after sildenafil 100 mg oral): +14.5±4.7 bpm
- dobutamine-mediated drop in peripheral resistance ([1]; after sildenafil 100 mg oral): not modified
- diastolic changes induced by dobutamine ([1]; compared to placebo): did not significantly alter diastolic changes induced by dobutamine
- A velocity, D2 − B2 [1, 2]: 11 ± 7 cm/s
- E velocity, D2 − B2 [1, 2]: 12 ± 11 cm/s
- E′ velocity, D2 − B2 [1, 2]: 1.5 ± 2.4 cm/s
- IVRT, D2 − B2 [1, 2]: −20 ± 13
- A velocity, Δ(B2 − B1) [1, 3]: -3 ± 8 cm/s
- Diastolic Blood Pressure, Δ(B2 − B1) [1, 3]: −6 ± 5 mmHg
- E velocity, Δ(B2 − B1) [1, 3]: -4 ± 12 cm/s
- Ejection Fraction, Δ(B2 − B1) [1, 3]: +6 ± 2
- End Systolic Elastance, Δ(B2 − B1) [1, 3]: +0.4 ± 0.2 mmHg/mL
- E′ velocity, Δ(B2 − B1) [1, 3]: +0 ± 3 cm/sec
- Heart Rate, Δ(B2 − B1) [1, 3]: +0 ± 3 min^−1
- IVRT, Δ(B2 − B1) [1, 3]: +8 ± 12 msec
- Stroke Volume, Δ(B2 − B1) [1, 3]: +5 ± 6 mL
- Systolic Blood Pressure, Δ(B2 − B1) [1, 3]: −6 ± 3 mmHg
- Total Peripheral Resistance, Δ(B2 − B1) [1, 3]: −170 ± 60 dyne * s/cm^5
- reduction of dobutamine-induced ejection fraction change [1, 4]: 66±64%
- reduction of dobutamine-induced end-systolic elastance change [1, 4]: 56±63%
- reduction of dobutamine-induced peak power change [1, 4]: 32±34%
- adverse events ([1]; single 100 mg oral dose, healthy volunteers): no adverse events
- progressive hypertrophy in AktTG mice (serial echo, heart weight/tibia length) (AktTG and NTG mice; AktTG, 6-week period): did not blunt progressive hypertrophy
- EDP (AktTG and NTG mice; AktTG): 8.9 ± 1.1
- EDV (AktTG and NTG mice; AktTG): 57.6 ± 5.4
- EF (AktTG and NTG mice; AktTG): 31.8 ± 2.1
- ESP (AktTG and NTG mice; AktTG): 90.1 ± 0.9
- ESV (AktTG and NTG mice; AktTG): 39.6 ± 4.5
- Eesn (AktTG and NTG mice; AktTG): 21.5 ± 2.9
- HR (AktTG and NTG mice; AktTG): 569.5 ± 47.4
- PMXI (AktTG and NTG mice; AktTG): 17.8 ± 1.9
- Tau (AktTG and NTG mice; AktTG): 10.0 ± 0.6
- dP/dtmax/IP (AktTG and NTG mice; AktTG): 128.5 ± 2.9
- dPdtmax (AktTG and NTG mice; AktTG): 6993 ± 156
- dPdtmin (AktTG and NTG mice; AktTG): −6241 ± 289
- EDP (AktTG and NTG mice; NTG): 4.9 ± 1.2
- EDV (AktTG and NTG mice; NTG): 44.5 ± 4.9
- EF (AktTG and NTG mice; NTG): 56.7 ± 3.5
- ESP (AktTG and NTG mice; NTG): 96.7 ± 4.7
- ESV (AktTG and NTG mice; NTG): 19.4 ± 3.0
- Eesn (AktTG and NTG mice; NTG): 39.9 ± 1.5
- HR (AktTG and NTG mice; NTG): 511.6 ± 31.4
- PMXI (AktTG and NTG mice; NTG): 25.9 ± 2.2
- Tau (AktTG and NTG mice; NTG): 7.4 ± 0.6
- dP/dtmax/IP (AktTG and NTG mice; NTG): 176.4 ± 14.8
- dPdtmax (AktTG and NTG mice; NTG): 10133 ± 791
- dPdtmin (AktTG and NTG mice; NTG): −9267 ± 417
